Measurements from PubChem BioAssay (NCI).
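Method: 48-hour compound exposure of cells in 96-well plates, five concentrations, linear interpolation of endpoints. TGI denotes the concentration required for complete inhibition of growth.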

Legend:
Test in all cases: NCI-60 cell line screen, 48 h
[1] = system: UACC-257 melanoma
[2] = system: SK-OV-3 ovarian
[3] = system: MDA-MB-435
[4] = system: U251 CNS
[5] = system: TK-10 renal
[6] = system: HOP-62 NSCLC
[7] = system: LOX IMVI melanoma
[8] = system: MCF7 breast
[9] = system: HCT-15 colon
[10] = system: PC-3 prostate
[11] = system: HS 578T breast
[12] = system: SK-MEL-2 melanoma
[13] = system: MDA-N
[14] = system: NCI-H23 lung
[15] = system: IGROV1 ovarian
[16] = system: COLO 205 colon
[17] = system: NCI/ADR-RES ovarian
[18] = system: 786-0 renal
[19] = system: ACHN renal
[20] = system: RPMI-8226 leukemia
[21] = system: M14 melanoma
[22] = system: HCC-2998 colon
[23] = system: HT29 colon
[24] = system: MALME-3M melanoma
[25] = system: SK-MEL-28 melanoma
[26] = system: OVCAR-4 ovarian
[27] = system: SN12C renal
[28] = system: BT-549 breast
[29] = system: HCT-116 colon
[30] = system: SNB-75 CNS
[31] = system: SF-268 CNS
[32] = system: DU-145 prostate
[33] = system: SF-295 CNS
[34] = system: UACC-62 melanoma
[35] = system: OVCAR-3 ovarian
[36] = system: HL-60(TB) leukemia
[37] = system: A549 NSCLC
[38] = system: NCI-H460 lung
[39] = system: SF-539 CNS
[40] = system: CAKI-1 renal
[41] = system: OVCAR-5 ovarian
[42] = system: HOP-92 NSCLC
[43] = system: SR leukemia
[44] = system: RXF 393 renal
[45] = system: UO-31 renal
[46] = system: MOLT-4 leukemia
[47] = system: KM12 colon
[48] = system: SNB-19 CNS
[49] = system: SK-MEL-5 melanoma
[50] = system: K-562 leukemia
[51] = system: SW-620 colon
[52] = system: NCI-H522 lung
[53] = system: MDA-MB-231 breast
[54] = system: EKVX NSCLC
[55] = system: NCI-H226 lung
[56] = system: A498 renal
[57] = system: OVCAR-8 ovarian

CC(=O)OCC1OC(n2c3c(c(-c4ccco4)c(C#N)c2=S)CCC3)C(OC(C)=O)C(OC(C)=O)C1OC(C)=O (stereo not drawn)
TGI [1]: > 100 µM | TGI [2]: > 100 µM | TGI [3]: > 100 µM | TGI [4]: > 100 µM | TGI [5]: > 100 µM | TGI [6]: > 100 µM | TGI [7]: > 100 µM | TGI [8]: > 100 µM | TGI [9]: > 100 µM | TGI [10]: > 100 µM | TGI [11]: > 100 µM | TGI [12]: > 100 µM | TGI [13]: > 100 µM | TGI [14]: > 100 µM | TGI [15]: > 100 µM | TGI [16]: > 100 µM | TGI [17]: > 100 µM | TGI [18]: > 100 µM | TGI [19]: > 100 µM | TGI [20]: > 100 µM | TGI [21]: > 100 µM | TGI [22]: > 100 µM | TGI [23]: > 100 µM | TGI [24]: > 100 µM | TGI [25]: > 100 µM | TGI [26]: > 100 µM | TGI [27]: > 100 µM | TGI [28]: > 100 µM | TGI [29]: > 100 µM | TGI [30]: > 100 µM | TGI [31]: > 100 µM | TGI [32]: > 100 µM | TGI [33]: > 100 µM | TGI [34]: > 100 µM | TGI [35]: > 100 µM | TGI [36]: > 100 µM | TGI [37]: > 100 µM | TGI [38]: > 100 µM | TGI [39]: > 100 µM | TGI [40]: > 100 µM | TGI [41]: > 100 µM | TGI [42]: 69 µM | TGI [43]: > 100 µM | TGI [44]: 86.9 µM | TGI [45]: > 100 µM | TGI [46]: 45.3 µM | TGI [47]: > 100 µM | TGI [48]: > 100 µM | TGI [49]: > 100 µM | TGI [50]: > 100 µM | TGI [51]: > 100 µM

O=C1NC(Cc2c[nH]c3ccccc23)C(=O)N2C(C3CCCCC3)c3[nH]c4ccccc4c3C[C@@H]12 (stereo partly drawn)
TGI [1]: 29 µM | TGI [3]: 24.6 µM | TGI [4]: 26 µM | TGI [5]: 37.6 µM | TGI [6]: 44.9 µM | TGI [7]: 28.1 µM | TGI [8]: > 100 µM | TGI [9]: 35.9 µM | TGI [10]: 28.3 µM | TGI [52]: 28.6 µM | TGI [11]: 12.7 µM | TGI [12]: 32.2 µM | TGI [13]: 25.2 µM | TGI [14]: 51 µM | TGI [15]: 36.9 µM | TGI [16]: 34.9 µM | TGI [17]: 41.2 µM | TGI [53]: 30.6 µM | TGI [18]: 28.5 µM | TGI [19]: 77.4 µM | TGI [20]: 32.8 µM | TGI [21]: 28.9 µM | TGI [23]: 29.6 µM | TGI [54]: 57.2 µM | TGI [24]: 28.4 µM | TGI [55]: 65.7 µM | TGI [25]: 44.4 µM | TGI [26]: > 100 µM | TGI [27]: 20.8 µM | TGI [28]: 40.8 µM | TGI [29]: 22.1 µM | TGI [31]: 49.3 µM | TGI [32]: > 100 µM | TGI [33]: 43.5 µM | TGI [34]: 34.5 µM | TGI [35]: 6.58 µM | TGI [36]: 42.9 µM | TGI [37]: > 100 µM | TGI [40]: 55.8 µM | TGI [41]: 43 µM | TGI [42]: 46.2 µM | TGI [43]: 34 µM | TGI [56]: 37.5 µM | TGI [44]: 21.2 µM | TGI [45]: 33.2 µM | TGI [46]: 34.6 µM | TGI [47]: 31.4 µM | TGI [48]: > 100 µM | TGI [49]: 25.4 µM | TGI [57]: 56.7 µM | TGI [50]: 44.8 µM | TGI [51]: 73.7 µM
